Measurements: US20160160268A1, “AMDINOCILLIN FOR RAPID DETERMINATION OF SUSCEPTIBILITY TO BETA-LACTAM ANTIBIOTICS” (THE REGENTS OF THE UNIVERSITY OF CALIFORNIA, priority 2013, published 2016)

Experiments:
Assay type in all cases: cell-based
[1] = system: lawn of E. coli (strains EC135, EC96, EC103, NDM-1); experiment: Kirby-Bauer disc diffusion antibiotic-susceptibility test
Source text: FIGS. 15A-15F present digital photomicrographs showing results of Kirby-Bauer disc diffusion antibiotic-susceptibility tests. 6 mm diameter antibiotic discs were placed on agar plates seeded with a lawn of E. coli that were Ampicillin susceptible (strain EC135), Ampicillin resistant (strain EC96), Cefazolin susceptible (strain EC103), Cefazolin resistant (strain EC96), Imipenem susceptible (strain EC103) or Imipenem resistant (strain NDM-1). In each panel the antibiotic disc is on the left and the amdinocillin disc is on the right. Images were obtained after 20 hours of incubation at 37° C.

[2] = system: E. coli (strain EC103) cells; experiment: E. coli cell length (filamentation) measurement
Procedure: The lengths of ampicillin-susceptible E. coli (strain EC103) cells were measured after treatment for 30 minutes with no antibiotics, ampicillin, or ampicillin plus amdinocillin. Digital photomicrographs of representative cells treated with no antibiotics (16A), ampicillin (16B), and ampicillin plus amdinocillin (16C) are shown.

[3] = system: antibiotic susceptible and resistant E. coli strains; experiment: Mature rRNA and pre-rRNA response to beta-lactam antibiotics with or without amdinocillin; conditions: for differentiation of antibiotic-susceptible from antibiotic-resistant bacteria on addition of amdinocillin to the assay: with amdinocillin
Procedure: As a result of blocking filamentation, levels of mature rRNA and pre-rRNA decrease within 30-45 min when amdinocillin is combined with beta lactam antibiotics. […] For example, at a concentration of 32 μg/ml, cefazolin causes a drop of pre-rRNA within 30 min whether or not amdinocillin is present.
Ampicillin-susceptible E. coli (strain EC135) was treated with ampicillin (16 μg/ml) alone, amdinocillin (1 μg/ml) alone, ampicillin plus amdinocillin, or neither. […] Effects on pre-rRNA were more pronounced than those on mature rRNA.
Ceftriaxone-susceptible E. coli (strain EC103) was treated with ceftriaxone ([…]) alone, amdinocillin ([…]) alone, ceftriaxone plus amdinocillin, or neither. Ceftriaxone-mediated effects on mature rRNA and pre-rRNA occurred 60 min faster with amdinocillin than without amdinocillin.
Cefazolin-susceptible E. coli (strain EC103) was treated with amdinocillin (1 μg/ml) plus cefazolin at concentrations ranging from 0-32 μg/ml.
Graphs illustrating the effects of beta-lactam antibiotics plus amdinocillin on antibiotic susceptible and resistant bacteria can be found in FIGS. 14A-14D. Antibiotic susceptible and resistant bacteria were treated with amdinocillin (1 μg/ml) plus various beta lactam antibiotics including 16 μg/ml cefazolin, 4 μg/ml ceftriaxone, 32 μg/ml piperacillin plus 4 μg/ml tazobactam, and 2 μg/ml imipenem. Differential effects on pre-rRNA of susceptible from resistant bacteria were evident within 30-90 min.

[4] = system: susceptible strain of E. coli; experiment: Response of pre-rRNA to cefazolin in log phase culture; conditions: log phase of growth
[5] = system: E. coli clinical urine isolate EC103; experiment: Electrochemical sensor assay of mature rRNA and pre-rRNA after adding an antibiotic to a growing culture; conditions: for effect on mature rRNA level: 25 μg/ml Chloramphenicol or 16 μg/ml Gentamicin added at 150 or 210 minutes; for effect on pre-rRNA level: 25 μg/ml Rifampicin, 25 μg/ml Chloramphenicol, 4 μg/ml Ciprofloxacin or 16 μg/ml Gentamicin added at 150 or 210 minutes
Procedure: Overnight cultures of EC103 were prepared by adding 5 μl of EC103 glycerol stock to 5 ml of MH broth with ampicillin and incubated at 37° C. overnight with shaking. […] Every 30 min, including at 0 min and the overnight culture itself, a 1 ml sample was taken for OD600 measurement and 10-fold serial dilutions (100 μl into 900 μl) were performed in room temperature MH broth. Cell density was determined by plating serial dilutions in triplicate. At each time point, culture samples were transferred to an ice water bath or centrifuged immediately at 4° C. for 3 min at 14,000 rpm.
Electrochemical detection.
Each sensor of the array consisted of a 2.5 mm diameter central working electrode, surrounded by an Au counter electrode and an Au pseudo-reference electrode. […] Washing steps were carried out after each application of reagents by applying a stream of deionized H2O to the sensor surface for approximately 2-3 sec followed by 5 sec of drying under a stream of nitrogen. Prior to addition of the first reagent, the bare gold chips were dried as described above. To functionalize the working sensor surface, a fresh mixture of 0.05 μM thiolated capture probe and 300 μM 1,6-hexanedithiol (96%, Sigma, St. Louis, Mo.) was prepared in 10 mM Tris-HCl, 1 mM EDTA and 0.3 M NaCl (pH 8.0) and allowed to stand at room temperature for 10 min. Aliquots of 6 μl of this mixture were cast over each Au working electrode in the 16-sensor array and incubated overnight at 4° C. in a humidified chamber.

For `CC1(C)S[C@@H]2[C@H](/N=C/N3CCCCCC3)C(=O)N2[C@H]1C(=O)O` [amdinocillin], the “synergy between amdinocillin and the antibiotics tested” value ([1]; ampicillin, cefazolin, imipenem discs, 20 hours at 37° C.) was “Synergy was not observed”, the “effect of amdinocillin on susceptibility of bacteria to beta-lactam antibiotics” value ([1]; disc diffusion) was “did not increase the susceptibility” and the “effect on filamentation caused by beta-lactam antibiotics” value [2] was “prevents filamentation”. The “effect on ampicillin-induced increase in cell length” value ([2]; ampicillin plus amdinocillin, 30 minutes, strain EC103) was “partially blocked”, the “effect of amdinocillin alone on rRNA or pre-rRNA levels” value ([3]; amdinocillin alone) was “no effect” and the “effect of amdinocillin on recognition of ampicillin susceptibility” value ([3]; ampicillin 16 μg/ml, amdinocillin 1 μg/ml, strain EC135) was “enabled early recognition of ampicillin susceptibility”. For the same compound, the “effect of amdinocillin on recognition of cefazolin susceptibility” value ([3]; cefazolin 4 μg/ml, amdinocillin 1 μg/ml, strain EC103) was “enabled early recognition of cefazolin-susceptibility” and the “effect of amdinocillin on pre-RNA levels” value ([3]; cefazolin 32 μg/ml, amdinocillin 1 μg/ml, strain EC103) was “no effect”.
With `CC1(C)S[C@@H]2[C@H](NC(=O)[C@H](N)c3ccccc3)C(=O)N2[C@H]1C(=O)O` [ampicillin] the “average increase in length of E. coli cells” value ([2]; treatment for 30 minutes, strain EC103) was 4 fold, the “dependence of the amdinocillin effect on the antibiotic concentration” value [3] was “independent of the antibiotic concentration” and the “differentiation of antibiotic-susceptible from antibiotic-resistant bacteria on addition of amdinocillin to the assay” value (“differentiation” below) [3] was “enables rapid differentiation”.
With `Cc1nnc(SCC2=C(C(=O)O)N3C(=O)[C@@H](NC(=O)Cn4cnnn4)[C@H]3SC2)s1` [cefazolin] the “drop in amount of pre-rRNA compared to culture without antibiotic” value [4] was “one-log drop”, the “time within which the pre-rRNA drop occurred” value [4] was at most 30 min and the “dependence of the amdinocillin effect on the antibiotic concentration” value [3] was “dependent on the antibiotic concentration”. The “concentration dependence of fall in pre-rRNA levels” value ([3]; cefazolin 0-32 μg/ml plus amdinocillin 1 μg/ml, strain EC103) was “fell more quickly at higher cefazolin concentrations”, the “effect on pre-rRNA” value ([3]; cefazolin 4 μg/ml) was “does not cause a drop of pre-rRNA unless amdinocillin is present” and the “time within which pre-rRNA drops” value ([3]; cefazolin 32 μg/ml, whether or not amdinocillin is present) was at most 30 min. For the same compound, the “differentiation” value [3] was “enables rapid differentiation”.
In the case of `CO/N=C(\C(=O)N[C@@H]1C(=O)N2C(C(=O)O)=C(COC(C)=O)CS[C@H]12)c1csc(N)n1` [cefotaxime], the “differentiation” value [3] is reported as “enables rapid differentiation”.
With `CO/N=C(\C(=O)N[C@@H]1C(=O)N2C(C(=O)O)=C(CSc3nc(=O)c(=O)[nH]n3C)CS[C@H]12)c1csc(N)n1` [ceftriaxone] the “how much faster effects on mature rRNA and pre-rRNA occurred with amdinocillin than without” value ([3]; ceftriaxone (8 pg/ml), amdinocillin 1 μg/ml, strain EC103) was 60 min.
In the case of `O=C(N[C@H](CO)[C@H](O)c1ccc([N+](=O)[O-])cc1)C(Cl)Cl` [chloramphenicol], the “effect on mature rRNA level” value [5] is reported as “decrease” and the “effect on pre-rRNA level” value [5] is reported as “selective increase”.
`CCN1CCN(C(=O)N[C@@H](C(=O)N[C@@H]2C(=O)N3[C@@H]2SC(C)(C)[C@@H]3C(=O)O)c2ccccc2)C(=O)C1=O` [piperacillin] was tested, and the “differentiation” value [3] was “enables rapid differentiation”.
In the case of gentamicin, the “effect on mature rRNA level” value [5] is reported as “decrease” and the “effect on pre-rRNA level” value [5] is reported as “without affecting”.
